According to patent publication US20240252463A1, “METHODS OF TREATING FIBROTIC PATHOLOGIES” (Mayo Foundation for Medical Education and Research, priority 2018, published 2024):
Read-outs that look alike come from different tables or passages of the source.

Experiments:
[1] = tested on: IMR-90 cells and IPF Patient-Derived Lung fibroblasts; experiment: Proliferation and apoptosis-factor expression of lung fibroblasts; type: cell-based, human
Protocol: IPF fibroblast and Normal lung fibroblast co-culture proliferation. Cell are pre-labelled with fluorescent dyes (red and green) and then co-cultured at a Ratio of 1:1 in 96 well plates. Cell counts are determined every 24 hours and plotted as a ratio of IPF/HLF cells. In the control wells the IPF cells outgrow and take over the well. N=2.
Proliferation of lung fibroblasts (IMR-90 cells and IPF Patient-Derived Lung fibroblasts) measured for 4 days in the presence of GPCR agonists ET-1 (100 nM) and LPA (10 μM) (32A, 32B) or growth factors TGFβ (2 ng/mL) and CTGF (100 ng/mL) (32C, 32D)+/−10M DHX. Cells were fixed and counted with DAPI at the end of each day. N=3 technical triplicates. RNA Expression of pro-apoptotic factor BIM (32E, 32F) and anti-apoptotic factor BCL2 (32G, 32H) was assessed following 24 treatment with DHX (10 μM). N=4.

[2] = tested on: bleomycin-induced pulmonary fibrosis; experiment: Bleomycin Mouse Study, dihydrexidine treatment; type: in vivo
Protocol: Bleomycin Mouse Study: In the initial in vivo siRNA study (FIG. 5), adult male age-matched C57BL/6N mice at 6-8 weeks of age were purchased from the National Cancer Institute (NCI)-Frederick Mouse Repository (Frederick, MD, USA). All experiments were performed in accordance with National Institute of Health guidelines and protocols approved by the Massachusetts General Hospital Subcommittee on Research Animal Care, and maintained all mice in a specific pathogen-free (SPF) environment certified by the American Association for Accreditation of Laboratory Animal Care (AAALAC). 6-8 weeks old mice were anesthetized with ketamine and xylazine before exposure of the trachea. Lung fibrosis was induced by intratracheal injection of bleomycin (50 μl at 1.2 U/kg) or phosphate buffered saline (PBS; as control) on day 0. After 14 days Small interfering RNA (siRNA) duplexes targeting mouse Yap (L-046247-01-0005) or Taz (L-058248-01-0005) mRNA (Dharmacon) or nontargeting control siRNA were administered in vivo by intratracheal instillation at a single dose of 25 μg (each siRNA) per mouse. On day 21 Mice were sacrificed and lungs harvested for collagen determination and biochemical analyses. To obtain BAL samples for total protein concentration determination, lungs were lavaged with six 0.5-ml aliquots of PBS. BAL samples were centrifuged at 3,000 g for 20 min at 4° C. and transferred the supernatants to siliconized low-binding Eppendorf tubes (PGC Scientifics) for subsequent analysis. Total protein concentration of the BAL fluid was determined by BCA Protein Assay Kit (Pierce). In the dihydrexidine treatment studies (FIG. 4), 8 week old female C57/BL6 mice were purchased from Charles River Laboratories. Mouse lung fibrosis was induced with bleomycin (BLEO; Fresenius Kabi) delivered intratracheally (3 U/kg) to the lungs using MicroSprayer® Aerosolizer (Penn-Century). The Sham mice received sterile 0.9% saline instead using identical methods. Mice were weighed every 24 hrs, and both groups were then randomized at day 10 into DHX and Control treatment groups, matching for the degree of weight change. DHX (5 mg/kg) was administered everyday intranasally (i.n.) dissolved in surfactant (infasurf) which has previously shown to aid in spreading to pulmonary aveoli for 14 days. The control groups of mice received the equivalent vehicle dose of surfactant. Following the final DHX treatment, mice were sacrificed and the right lungs were inflated with 4% paraformaldehyde (PFA) and further incubated in 4% PFA for 24 hours prior processing for paraffin embedding. The left lobe of the lung was snap frozen in liquid nitrogen for RNA isolation and hydroxyproline assay. Experimental procedures were approved by the Mayo Clinic Institutional Animal Care and Use Committee and the animals were handled in accordance with their guidelines.
Histological Scoring: Five μm thick sections were cut from Paraffin embedded lung tissues, and the sections were stained either with hematoxylin and eosin (H&E) or with Masson's Trichrome stain kit (Abcam). All H&E-stained slides and trichrome-stained slides were reviewed in a blinded fashion by a thoracic pathologist. The severity of interstitial and peribronchiolar lung immature and mature fibrosis was estimated on a numerical scale according to Ashcroft et al. For scoring purposes, all H&E stained slides were systematically scanned at 100× magnification and successive 100× fields were scored. Scoring was based on the following scale: 0 (no fibrosis), 1 (minimal interstitial and/or peribronchiolar thickening due to fibrosis), 3 (moderate thickening without obvious architectural distortion), 5 (increased fibrosis with formation of fibrous bands and/or small masses), 7 (severe architectural distortion with large areas of fibrosis and areas of honeycomb changes), and 8 (total fibrous obliteration of the field). The predominant score for each field was recorded. The mean of all scores was calculated for each case. […]

αSMA = αSMA intensity (fibroblast activation) in IPF patient-derived lung fibroblasts + TGFβ; type: cell-based, human; details: Homo sapiens, SMA, 1 μM + TGFβ, treated for 72 hours
cAMP = cAMP Assay (cAMP-Glo) in lung fibroblasts; type: cell-based, human; details: IPF patient-derived fibroblasts, 20 minutes, DHX 10 μM
Protocol: cAMP Assay: IPF patient derived fibroblasts were plated in EMEM containing 10% FBS overnight. […] 20 minutes prior to cell lysis media was removed and cells were treated with “induction buffer” containing nonselective phosphodiesterase inhibitors and the indicated concentration of compound(s). Luminescence was measured on a Flexstation 3 (Molecular Devices) plate reader.

[3] = bleomycin mice, 5 mg/kg once daily i.n., day 24

Oc1cc2c(cc1O)[C@H]1c3ccccc3CN[C@@H]1CC2 (racemic) [Dihydrexidine, dihydrexidine]
RNA expression of pro-apoptotic BIM and anti-apoptotic BCL2 ([1]; 24 treatment with DHX (10 μM)): primes lung fibroblasts for apoptosis | proliferation of lung fibroblasts ([1]; 4 days, with ET-1, LPA, TGFβ or CTGF +/−10M DHX): blocks proliferation | lung remodeling in the absence of fibrosis (body weight, histology, collagen, gene expression) ([2]; Sham DHX mice, identical time course and route): did not differ from those of control mice | weight change ([2]; bleomycin mice, 5 mg/kg once daily i.n. from Day 10): lost significantly less weight | lung histology (Ashcroft, blinded pathologist) [2, 3]: nearly completely protected from lung remodeling | staining for YAP and TAZ in the lungs [2, 3]: attenuated by DHX treatment | total collagen in the lungs (hydroxyproline) [2, 3]: nearly identical to sham treated mice | transcript levels of Acta2, Ctgf, Fn1, Col1a1, Col1a2, Yap and Taz in lung [2, 3]: significantly attenuated | activity at 1 µM (αSMA; patient sample IPF-1, read-out: αSMA intensity (% of DMSO control) IPF-1): 4.98% | activity at 1 µM (αSMA; patient sample IPF-2, read-out: αSMA intensity (% of DMSO control) IPF-2): 0.0469% | activity at 1 µM (αSMA; patient sample IPF-3, read-out: αSMA intensity (% of DMSO control) IPF-3): 0.513% | activity at 1 µM (αSMA; patient sample IPF-4, read-out: αSMA intensity (% of DMSO control) IPF-4): 12% | cAMP (cAMP): elevated cAMP
